Experiments:
munc18/syntaxin 1A = molecular target: T1, munc18/syntaxin 1A (Homo sapiens, UniProt Q16623); experiment: Co-immunoprecipitation of munc18 and syntaxin in transfected HEK293 cells; assay type: cell-based; conditions: mean±SEM
T1 construct: syntaxin 1A plasmid a gift RC204873; host or cells: HEK293
Procedure: Western Blot. Co-immunoprecipitation of munc18 and syntaxin was carried out using PEI transfection of HEK293 cells (American Type Culture Collection) plated and maintained in DMEM medium with 10% FBS and penicillin/streptomycin. 24 hr prior to transfection, HEK293 cells are plated onto 150 mm petri dishes from confluent T75 flasks at the ratio of 2/3 flask per plate. 24 hr after plating, PEI transfection was carried out by mixing 25% munc18 (OriGene RC204873), 25% syntaxin 1A (gift from Raymond A Frizzell, Children's Hospital of Pittsburgh), and 50% pcDNA3 (Invitrogen) plasmids ([…] total plasmids with 500 μl medium without penicillin/streptomycin, and 110 μl PEI at 1 mg/ml). The PEI was lastly added to the mixture drop-wise to avoid clumping of the DNA precipitates. This transfection reagent was allowed to incubate in room temperature for at least 5 min. The HEK293 medium was replaced with medium without penicillin/streptomycin prior to the addition of the transfection mixture. At 24 hr after transfection, the transfection medium was replaced with regular medium containing either cpd5 or DMSO. The cells were lysed and protein was harvested 24 hr after cpd5/DMSO treatment using 200 μl NP40 buffer (Invitrogen) containing phenylmethylsulfonyl fluoride (PMSF, Sigma-Aldrich) and protease inhibitor cocktail (¼ tablet, cOmplete Mini, EDTA-free, Sigma-Aldrich). The resulting HEK293 sample was immunoprecipitated using mouse anti-syntaxin 1A antibody (abeam). The western blot was probed using the Biogen system with the same syntaxin 1A antibody and mouse anti-Flag (Sigma-Aldrich) used for the detection of munc18. Quantification of protein pulldown was normalized to the syntaxin signal before comparisons. SDS-PAGE in this study are run in 10% acrylamide. Small variations in band separation are caused by the semi-wet transfer method.

[1] = test system: delayed rectifier K+ currents (Kv2.1-mediated) in rat cortical culture neurons; experiment: Whole-cell patch clamp of delayed rectifier K+ currents after TBOA; assay type: cell-based; conditions: Cpd5 incubation alone, 5 hours total
Procedure: Cortical culture electrophysiology. Whole-cell patch-clamp experiments were performed on rat cortical culture neurons prepared as described in the LDH toxicity experiments. The TBOA treatment was reduced in severity in this experiment to limit extensive cell injury that would prevent adequate patch clamp recordings. Prior to recording, coverslips were treated with 50 μM TBOA in MHB for 2 hr. The treatment was terminated with 3×MHB washes and transferring the coverslip to a separate well containing MHB to rest for 2 hr prior to electrophysiology recordings and to allow for the expression of enhanced currents. For cpd5-treated groups, cells were pre-incubated for 1 hr in 10 μM cpd5 prior to the addition of TBOA. Cpd5 was also present during the TBOA and the post-TBOA incubation phases.
Recordings were carried out using 1.5 mm diameter borosilicate glass electrodes (Sutter Instruments) made from a horizontal pipette puller at 5-7 MΩ. The internal solution contains (in mM): 100 K-gluconate, 10 KCl, 1 MgCl2, 1 CaCl2, 10 HEPES, 11 EGTA, 2.2 ATP, 0.33 GTP. The internal solution was further adjusted to pH 7.2 and to 280 mOsm with the addition of sucrose. The pH adjusted (7.2) external solution was composed of the following (in mM): 115 NaCl, 2.5 KCl, 2.0 MgCl2, 10 HEPES, 10 D-glucose, and 0.25 μM TTX. […]

T1 sequence (Q16623 whole entry, species assumed): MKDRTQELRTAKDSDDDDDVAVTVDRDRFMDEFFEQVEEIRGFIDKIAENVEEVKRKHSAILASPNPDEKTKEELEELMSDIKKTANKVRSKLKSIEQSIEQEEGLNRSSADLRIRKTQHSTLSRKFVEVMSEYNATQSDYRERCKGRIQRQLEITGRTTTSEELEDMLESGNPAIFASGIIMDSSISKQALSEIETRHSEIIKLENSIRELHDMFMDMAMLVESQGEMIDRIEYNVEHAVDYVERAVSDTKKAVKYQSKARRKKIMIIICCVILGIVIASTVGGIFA

COc1ccc(CNC(=O)Nc2cccc(-c3nc4ccccc4s3)c2)cc1OC [cpd5, 3-[3-(1,3-benzothiazol-2-yl)phenyl]-1-[(3,4-dimethoxyphenyl)methyl]urea]
munc18 co-immunoprecipitated with syntaxin, cpd5/DMSO (munc18/syntaxin 1A; 10 μM cpd5, 24 hr): 1.032±0.034 | munc18 co-immunoprecipitated with syntaxin, cpd5/DMSO (munc18/syntaxin 1A; 30 μM cpd5, 24 hr): 0.4459±0.09367 | munc18 co-immunoprecipitated with syntaxin, cpd5/DMSO (munc18/syntaxin 1A; 100 μM cpd5, 24 hr): 0.4339±0.135 | basal K+ current densities [1]: no significant effects

Source: US12226400B2, “Neuroprotective disruption of Kv2.1/syntaxin interaction by small molecules” (UNIVERSITY OF PITTSBURGH-OF THE COMMONWEALTH SYSTEM OF …, priority 2018, dated 2025)
